Experimental data: patent publication US11351185B2, “Use of isovalerylspiramycins as anti-cancer agents to inhibit metastasis” (priority 2020, dated 2022)
“Also recorded” adds a separate entry of the source.

Experiments:
[1] = test system: other proteins (antioxidant components); assay: Surface plasmon resonance (SPR) assay, other antioxidant components; type: binding
IOMM tumors = assay: IOMM meningioma subcutaneous xenograft mouse model; type: in vivo, Nude mice; conditions: 35 mg/kg i.p. daily; 18 days after treatment
Method: For subcutaneous xenografts, NSG mice (6-8 weeks old) from the NCI-Frederick animal facility and Jackson Lab (Bar Harbor, Me. USA) were injected with 5×10^6 to 1×10^7 cells subcutaneously in the flank. One week later, the tumor-bearing mice were randomly assigned to different groups and made the tumor volume baseline equivalent and treated with normal saline or Zenomycin (35 mg/kg) everyday intraperitoneally. Tumors were measured using a caliper, and volume was calculated.

[2] = test system: murine B16 cells (lung metastasis); assay: B16 melanoma lung metastasis mouse model; type: in vivo, C57BL/6 mice; conditions: 35 mg/kg i.p. every day, 12 days; vs saline
Method: In addition to the aforementioned xenograft tumor models, the anti-tumor activity of ISP I was assessed in a metastatic murine melanoma (B16) model.
For metastasis study, C57BL/6 mice (4-5 weeks) from Charles River Laboratories (Wilmington, Mass. USA) were assigned randomly to one or another of two groups, 9 animals per group. B16-F10 mouse skin melanoma cells (2×10^5) were resuspended in 100 μl saline and injected through tail vein. After treatment with ISP I at 35 mg/kg for 12 days, all mice were euthanized, and the lungs were examined for counting black metastasis dots.

[3] = test system: in vivo cancer parameters; conditions: animal models; cited from earlier work
SELH [4] = target: T1, SELH (Homo sapiens, UniProt Q8IZQ5); assay: Cellular thermal shift assay (CETSA) / thermo-stability assay; type: binding; parameters: endogenous in cells; host or cells: LN229, 786-O; conditions: vs DMSO
T1 sequence (Q8IZQ5 1-122): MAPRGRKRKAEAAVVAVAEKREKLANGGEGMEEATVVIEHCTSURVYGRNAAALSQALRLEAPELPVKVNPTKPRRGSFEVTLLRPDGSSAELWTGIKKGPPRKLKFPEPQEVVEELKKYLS
Description: Next, the inventors used a thermo-stability assay to confirm SELH was targeted by ISP I in LN229 and 786-O cell lines. The principle of the assay is based on altered protein thermal stabilization/destabilization due to ligand binding in living cells. […] (FIG. 5B and FIG. 6A). To verify further the specificity of ISP I's targeting of SELH, the inventors designed a surface plasmon resonance assay to assess the interaction of ISP I with SELH synthesized in bacteria.
CETSA experiments were performed to determine the ISP I-related ligand induced shifts. Intact and live cells in a 10-cm dish were harvested, washed and resuspended in PBS with protease inhibitor cocktail. Protein of the cells was extracted by freeze-thaw more than three times, using liquid nitrogen. The supernatant was centrifuged at 20, 000 g for 20 min at 4° C. Then the samples were aliquoted to several groups incubated with different concentrations of ISP I for 1 hour. After that, samples were aliquoted into PCR tubes and thereafter heated at gradient temperature ranging from 40° C. to 80° C. for 3 min. Then the samples were centrifuged again and resolved using 4-12% SDS-PAGE followed by western blot experiments.

[5] = test system: SELH-deficient 786-O and RCC4 cells; assay: CCK8 assay in SELH-deficient (CRISPR/CAS9) RCC cells; type: cell-based; conditions: 786-O and RCC4 SELH knock out
Method: (§1) Cell viability was measured by Cell Counting Kit-8 (CCK-8, Dojindo Molecular Technologies, Tokyo, Japan). Cells were seeded in 96-well plates at a density of 3×10^3 cells/well and cultured for 24 hours before treatment with ISP I at different concentration. After treatment for a gradient ISP I concentration from 0 to 20 μg/ml for 48 hours, while control groups were only treated in PBS solution, 10 μl of CCK-8 solution were added to each well and cells were incubated for an additional 2 hours. The absorbance in each well at a wavelength of OD450 was detected by the Synergy H1 microplate reader, a product of BioTek (Winooski, Vt. USA).

SELH [6] = target: T1, SELH; assay: Drug affinity responsive target stability (DARTS) assay; type: binding; parameters: endogenous in cells; host or cells: LN229; conditions: LN229 lysate; ISP I 40 μg/mL
Method: To identify ISP I's molecular target, the inventors performed drug affinity responsive target stability (DARTS) assay in LN229 cells.
The inventors discovered that the binding of ISP I to its target proteins temporarily locks them into a stable conformational structure, which prevents their recognition by proteases. After evading protease degradation, the identity of ISP I's target proteins was determined using mass spectroscopy.
DARTS assay data were taken to identify the target of ISP I in vitro. For this assay, the invenots used the protocol published by Lomenick et al., Proc. Nat'l Acad. Sci. USA 106: 21984 (2009). Briefly, LN229 cells were lysed with M-PER (Pierce) supplemented with protease and phosphatase inhibitors. After centrifugation at 14,000 rpm for 15 min, lysates were diluted to the same final volume and protein concentration with M-PER and were dissolved in TNC buffer [50 mM Tris-HCl (pH 8.0), 50 mM NaCl, 10 mM CaCl2)]. All steps were performed on ice or at 4° C. to help prevent premature protein degradation. […] Peptides were analyzed by LC/MS/MS on a Thermo LTQ-Orbitrap mass spectrometer with an Eksigent LC pump. For quantitative comparison of protein and peptide abundances, MS spectra were analyzed by means of the differential workflow of Rosetta Elucidator (Rosetta Inpharmatics).

[7] = test system: meningioma cell lines IOMM, JEN, CH-157; assay: CCK8 cell viability assay, meningioma cell lines; type: cell-based; conditions: 48 hours
Method: as §1

Structure (SMILES): COC1C(O)CC(=O)OC(C)CC=CC=CC(OC2CCC(N(C)C)C(C)O2)C(C)CC(CC=O)C1OC1OC(C)C(OC2CC(C)(O)C(OC(=O)CC(C)C)C(C)O2)C(N(C)C)C1O (stereo not drawn) [ISP I, 4″-isolvalerylspiramycin I]
- binding to other proteins (SPR) [1]: does not bind with the other proteins
- tumor size, weight and burden (IOMM tumors): reduced IOMM tumor burden; also recorded: significantly reduced tumor size and weight
- lung tumor nodules (melanoma spots) [2]: significantly reduced lung tumor nodules
- in vivo cancer parameters such as tumor growth rate and relative tumor volume [3]: reduction
- thermal stabilisation of SELH (western blot) (SELH [4]; 786-O cells): ISP I-protected SELH was observed along with a rise in temperature; also recorded: protective effect of ISP I on SELH was present over a range of increasing temperatures
- thermal stabilisation of SELH (western blot) (SELH [4]; LN229 cells): ISP I-protected SELH was observed along with the rise of temperature; also recorded: protective effect of ISP I on SELH was present over a range of increasing temperatures
- sensitivity of SELH-deficient cells vs wild type (CCK8) [5]: resistance to ISP I; also recorded: SELH-deficient cells were resistant to ISP I treatment
- protein protected from protease (target identification by mass spectroscopy) (SELH [6]): SELH was the most abundant primary protein present
- cytotoxic effect on meningioma cell lines [7]: demonstrated a cytotoxic effect
